Experimental data from US7148211B2, “Formulation for lipophilic agents” (Genzyme Corporation, priority 2002, dated 2006).

Experiments:
[1] = system: patients with advanced androgen-independent prostate cancer; assay: Open-labeled clinical study of 1α,24-(OH)2D2 in advanced androgen-independent prostate cancer; type: in vivo; conditions: for progression of metastatic disease (CAT scans, X-rays, bone scans): second phase, after one and two years
Text: (§1) Patients with advanced androgen-independent prostate cancer participate in an open-labeled study of 1α,24-(OH)2D2. […] On admission to the study, patients begin a course of therapy with intravenous 1α,24-(OH)2D2 lasting 26 weeks, while discontinuing any previous use of calcium supplements, vitamin D supplements, and vitamin D hormone replacement therapies. During treatment, the patients are monitored at regular intervals for: (1) hypercalcemia, hyperphosphatemia, hypercalciuria, hyperphosphaturia and other toxicity; (2) evidence of changes in the progression of metastatic disease; and (3) compliance with the prescribed test drug dosage.
(§2) The study is conducted in two phases. During the first phase, the maximal tolerated dosage (MTD) of daily 1α,24-(OH)2D2 is determined by administering progressively higher dosages to successive groups of patients. All doses are administered in the morning before breakfast. The first group of patients is treated with 25.0 μg of 1α,24-(OH)2D2 (formulated with 2.5% w/w benzyl alcohol, 0.5%–2.5% w/w TWEEN™-20, and 20 ppm BHT). Subsequent groups of patients are treated with 50.0, 75.0 and 100.0 μg/day. Dosing is continued uninterrupted for the duration of the study unless serum calcium exceeds 11.6 mg/dL, or other toxicity of grade 3 or 4 is observed, in which case dosing is held in abeyance until resolution of the observed toxic effect(s) and then resumed at a level which has been decreased by 10.0 μg.
(§3) During the second phase, patients are treated with 1α,24-(OH)2D2 for 24 months at 0.5 and 1.0 times the MTD.

[2] = system: elderly subjects with secondary hyperparathyroidism; assay: Open label study of elderly subjects with elevated blood PTH from secondary hyperparathyroidism; type: in vivo, human; conditions: oral 2.5 μg/day, twelve weeks
Protocol: Thirty elderly subjects with secondary hyperparathyroidism are enrolled in an open label study. The selected subjects have ages between 60 and 100 years and have elevated serum PTH levels (greater than the upper limit of young normal range). Subjects also have femoral neck osteopenia (femoral neck bone mineral density of […]).
Subjects are requested to keep a diet providing approximately 500 mg calcium per day without the use of calcium supplements. For a twelve week treatment period, subjects self-administer orally 2.5 μg/day 1α-OH-vitamin D2.(i.e., 2.5 μg doxercalciferol, 2.5% w/w benzyl alcohol, 0.5%–2.5% w/w TWEEN™-20, and 20 ppm BHT) At regular intervals throughout the treatment period, subjects are monitored for serum PTH levels, serum calcium and phosphorus, and urine calcium and phosphorus levels. Efficacy is evaluated by pre- and post-treatment comparisons of serum PTH levels. Safety is evaluated by serum and urine calcium and phosphorus values.

[3] = system: End Stage Renal Disease patients with secondary hyperparathyroidism; assay: Double-blind placebo-controlled study in ESRD hemodialysis patients exhibiting secondary hyperparathyroidism; type: in vivo, human
Text: Up to 120 ESRD (End Stage Renal Disease) patients undergoing chronic hemodialysis are studied in a multicenter, double-blind, placebo-controlled study based in two major U.S. metropolitan areas. The selected patients reside in two major metropolitan areas within the continental U.S., have ages between 20 and 75 years and have a history of secondary hyperparathyroidism. They have been on hemodialysis for at least four months, have a normal (or near normal) serum albumin, and have controlled serum phosphorus (often by using oral calcium phosphate binders).
On admission to the study, each patient is assigned at random to one of two treatment groups. One of these groups receives two consecutive 12-week courses of therapy with 1α-OH-vitamin D2 (doxercalciferol); the other receives a 12-week course of therapy with 1α-OH-vitamin D2 followed, without interruption, by a 12-week course of placebo therapy. Each patient discontinues any 1, α,25-(OH)2-vitamin D3 therapy for eight weeks prior to initiating 1α-OH-vitamin D2 therapy (daily dose of 4 μg doxercalciferol, formulated with 2.5% w/w benzyl alcohol, 0.5%–2.5% w/w TWEEN™-20, and 20 ppm BHT). Throughout this eight-week washout (or control) period and the two subsequent 12-week treatment periods, patients are monitored weekly for serum calcium and phosphorus. Serum intact PTH is monitored weekly or biweekly, and bone-specific serum markers, serum vitamin D metabolites, serum albumin, blood chemistries, hemoglobin and hematocrit are monitored at selected intervals.
During the study, patients undergo routine hemodialysis (three times per week) using a 1.24 mM calcium dialysate and ingest calcium phosphate binders (such as calcium carbonate or calcium acetate) in an amount sufficient to keep serum phosphate controlled (6.9 mg/dL). Patients who develop persistent mild hypercalcemia or mild hyperphosphatemia during the treatment periods reduce their 1α-OH-vitamin D2 to 4 μg three times per week (or lower). Patients who develop marked hypercalcemia or marked hyperphosphatemia immediately suspend treatment. Such patients are monitored at twice weekly intervals until the serum calcium or phosphorus is normalized, and resume 1α-OH-vitamin D2 dosing at a rate which is 4 μg three times per week (or lower).

[4] = system: patients with advanced androgen-independent prostate cancer; assay: Study of Example 7 repeated for 1α-(OH)D2 in prostate cancer; type: in vivo, human; conditions: for progression of metastatic disease (CAT scans, X-rays, bone scans): phase two, after two years
Text: as §1, §2, §3
The study of Example 7 is repeated for the active vitamin D compound, 1α-(OH)D2 (formulated with 2.5% w/w benzyl alcohol, 0.5%–2.5% w/w TWEEN™-20, and 20 ppm BHT). […] In summary, the present invention provides an improved formulation for lipophilic drug agents that are only slightly soluble in an aqueous vehicle. The formulation in addition to the lipophilic drug agent includes a lipophilic antioxidant, a non-ionic solubilizer or surfactant, and optionally, an agent which is an organic solvent/ preservative.

[5] = treated with the MTD for at least six months

Row | SMILES | circulating levels of 1α,25-(OH)2D2 ([1]; blood samples of patients treated with 1α,24-(OH)2D2) | dose dependence of levels of circulating 1α,24-(OH)2D2 ([1]; human, in vivo) | maximum levels of circulating 1α,24-(OH)2D2 ([1]; human, in vivo) | serum and urine calcium ([1]; human, in vivo) | progression of metastatic disease (CAT scans, X-rays, bone scans) ([1]; higher dosage (1.0 times the MTD)) | progression of metastatic disease (CAT scans, X-rays, bone scans) ([1]; lower dosage (0.5 times the MTD)) | bone pain associated with metastatic disease [1, 5] | PTH levels, pre- and post-treatment comparison [2] | incidence of hypercalcemia, hyperphosphatemia, hypercalciuria and hyperphosphaturia [2] | reduction of serum PTH levels (study conclusion) ([3]; ESRD patients) | mean serum PTH after initiation of dosing ([3]; ESRD patients, daily dose of 4 μg doxercalciferol formulated with benzyl alcohol, TWEEN-20, BHT) | safety compared with currently used therapies (study conclusion) ([3]; despite higher dosages and concurrent high levels of oral calcium phosphate binder) | serum levels of calcium and phosphorus ([3]; end of first 12-week treatment period, for end stage renal disease patients) | hypercalcemia ([3]; patients exhibiting excessive suppression of serum PTH, corrected by dosage reduction) | progression of metastatic disease (CAT scans, X-rays, bone scans) ([4]; higher dosage) | progression of metastatic disease (CAT scans, X-rays, bone scans) ([4]; lower dosage) | bone pain associated with metastatic disease [4, 5]
1 | C=C1/C(=C\C=C2/CCC[C@]3(C)[C@@H]([C@H](C)/C=C/C(C)(O)C(C)C)CC[C@@H]23)C[C@H](O)C[C@H]1O (stereo partly drawn) [1α,24-(OH)2D2, 1α,24-dihydroxyvitamin D2] | suppressed, often to undetectable levels | increase proportionately with the dosage administered | above 100 pg/mL | elevated in a dose responsive manner | stable disease and partial or complete remission in many patients | stable disease or partial remission in many patients | significantly diminished |  |  |  |  |  |  |  |  |  | 
2 | C=C1/C(=C\C=C2/CCC[C@]3(C)[C@@H]([C@H](C)/C=C/[C@H](C)C(C)C)CC[C@@H]23)C[C@@H](O)C[C@@H]1O [1α-OH-vitamin D2, 1α-hydroxyvitamin D2] |  |  |  |  |  |  |  | significantly reduce PTH levels | insignificant incidence | effective in reducing serum PTH levels | less than 50 % of pretreatment levels | safer than currently used therapies | normal or near normal | transient mild hypercalcemia is observed | stable disease and partial or complete remission in many patients | stable disease or partial remission in many patients | significantly diminished
